Counter-ions that a name gives are not always drawn.
These compounds were tested on Jurkat T cells. Conditions: IL-2 production level in treated group compared to control group; 48 hours treatment, then anti-CD3/anti-CD28 12 hours.
Assay type: cell-based, human
From the text: Two preliminary screens were designed and performed.
To construct “blood chemical compound library for cell-based screening purposes, components such as antibodies that are difficult to distinguish due to a wide variety, and some supplements that only function at a whole organism level including fish oils and herbs were excluded. Physiological ranges of serum levels of individual blood chemicals are available in the human metabolome database (https://hmdb.ca/) and applied in the experimental design. For first screen 1a, Jurkat T cells were treated with blood chemical library for 48 hours and then activated with 2.5 μg/mL anti-CD3 and 0.5 μg/mL anti-CD28 antibodies for another 12 hours, followed by measurement of IL-2 level in medium supernatant using ELISA kit (Biolegend). For first screen 1b, 1×10^5 PD-1^+ Jurkat T cells were co-cultured with 2×10^4 H596 (PD-L1^+) cells in a well of 96-well plate for 60 hours, and then activated with 2.5 μg/mL anti-CD3 and 0.5 μg/mL anti-CD28 antibodies for another 12 hours, followed by measurement of IL-2 level in medium supernatant using ELISA kit. Please also refer to Resources Table and Table 1-2 for more details.
In the case of `O=C([O-])CC(O)(CC(=O)[O-])C(=O)[O-].[Na+].[Na+].[Na+]` [Sodium citrate], the “Relative changed percentage (%)” value is reported as 13.84%.
`N[C@@H](CCC(=O)N[C@@H](CS)C(=O)NCC(=O)O)C(=O)O` [L-glutathione] was tested, and the “Relative changed percentage (%)” value was 13.46%.
With THYROCALCITONIN SALMON/calcitonin the “Relative changed percentage (%)” value was 11.37%.
`CC(C)=O` [ACETONE] was tested, and the “Relative changed percentage (%)” value was −31.07%.
In the case of `O=c1[nH]c(=O)c2[nH]c(=O)[nH]c2[nH]1` [URIC ACID], the “Relative changed percentage (%)” value is reported as −6.651%.
`O=C(O)CC(O)(CC(=O)O)C(=O)O` [Citric Acid] was tested, and the “Relative changed percentage (%)” value was −36.8%.
With `C[N+](C)(C)[C@@H](Cc1c[nH]c(=S)[nH]1)C(=O)[O-]` [L-(+)-ERGOTHIONEINE INNER SALT] the “Relative changed percentage (%)” value was −10.39%.
For `O=C([O-])[C@@H](O)[C@@H](O)[C@H](O)[C@@H](O)C(=O)[O-].[Ca+2]` [Calcium d-glucarate], the “Relative changed percentage (%)” value was −12.14%.
In the case of `CC/C=C\C/C=C\C/C=C\C/C=C\C/C=C\C/C=C\CCC(=O)O` [Docosahexaenoic Acid], the “Relative changed percentage (%)” value is reported as −29.89%.
For `O=C(O)CC(O)C(=O)O` (centres unmarked) [Malic acid], the “Relative changed percentage (%)” value was 38.52%.
In the case of `N[C@@H](Cc1ccccc1)C(=O)O` [L-Phenylalanine], the “Relative changed percentage (%)” value is reported as −17.2378%.
With `N[C@@H](CC(=O)[O-])C(=O)[O-].[K+].[K+]` [L-Aspartic acid potassium salt] the “Relative changed percentage (%)” value was 4.421%.
With `CC[C@H](C)[C@@H]1NC(=O)[C@H](Cc2ccc(O)cc2)NC(=O)[C@@H](N)CSSC[C@@H](C(=O)N2CCC[C@H]2C(=O)N[C@@H](CC(C)C)C(=O)NCC(N)=O)NC(=O)[C@H](CC(N)=O)NC(=O)[C@H](CCC(N)=O)NC1=O` [OXYTOCIN] the “Relative changed percentage (%)” value was −6.991%.
For `N[C@@H](Cc1cc(I)c(Oc2cc(I)c(O)c(I)c2)c(I)c1)C(=O)O` [L-THYROXINE], the “Relative changed percentage (%)” value was 18.7243%.
For `[Na+].[Na+].[O]=[Mo](=[O])([O-])[O-]` [Sodium Molybdate], the “Relative changed percentage (%)” value was 22.1968%.
In the case of `CCCC/C=C\CCCCCCCC(=O)O` [Myristoleic acid], the “Relative changed percentage (%)” value is reported as −21.38%.
In the case of `C=C1CC[C@H](O)C/C1=C/C=C1\CCC[C@]2(C)[C@@H]([C@H](C)CCCC(C)C)CC[C@@H]12` [CHOLECALCIFEROL CRYSTALLINE, CHOLECALCIFEROL], the “Relative changed percentage (%)” value is reported as 25.45%.
In the case of `NC(=O)NCCC[C@H](N)C(=O)O` [L-CITRULLINE], the “Relative changed percentage (%)” value is reported as −3.384%.
`COc1c(O)c(C)c(C/C=C(\C)CC/C=C(\C)CC/C=C(\C)CC/C=C(\C)CC/C=C(\C)CC/C=C(\C)CC/C=C(\C)CC/C=C(\C)CC/C=C(\C)CCC=C(C)C)c(O)c1OC` [Ubiquinol] was tested, and the “Relative changed percentage (%)” value was 2.165%.
`C/C=C/C=C/C(=O)[O-].[K+]` [Potassium sorbate] was tested, and the “Relative changed percentage (%)” value was −2.288%.
For `O=C(O)CCC(=O)O` [SUCCINIC ACID], the “Relative changed percentage (%)” value was 4.14%.
For `O=P([O-])([O-])O.[K+].[K+]` [Dipotassium Phosphate], the “Relative changed percentage (%)” value was −5.393%.
In the case of `Nc1cc[nH]c(=O)n1` [CYTOSINE], the “Relative changed percentage (%)” value is reported as 74.6228%.
With `CSCC[C@H](N)C(=O)O` [L-Methionine] the “Relative changed percentage (%)” value was −11.84%.
For `O=C(CO)[C@@H](O)[C@H](O)[C@H](O)CO` [D(−)FRUCTOSE], the “Relative changed percentage (%)” value was −25.52%.
For `CC(O)CC(=O)O` (centres unmarked) [3-HYDROXYBUTYRIC ACID], the “Relative changed percentage (%)” value was 5.082%.
`Cc1c(O)cc2c(c1C)O[C@](C)(CCC[C@H](C)CCC[C@H](C)CCCC(C)C)CC2` [(+)-GAMMA-TOCOPHEROL] was tested, and the “Relative changed percentage (%)” value was 1.56%.
With `N[C@@H](CSSC[C@H](N)C(=O)O)C(=O)O` [L-Cystine] the “Relative changed percentage (%)” value was −19.73%.
With `O=C(O)CC(O)C(=O)O` (racemic) [DL-MALIC ACID] the “Relative changed percentage (%)” value was 40.01%.
XANTHOPHYLL FROM MARIGOLD was tested, and the “Relative changed percentage (%)” value was 7.531%.
`CCCCCC/C=C\CCCCCCCC(=O)O` [Palmitoleic acid] was tested, and the “Relative changed percentage (%)” value was 54.63%.
For `CC1=C[C@H](O)CC(C)(C)[C@H]1/C=C/C(C)=C/C=C/C(C)=C/C=C/C=C(C)/C=C/C=C(C)/C=C/C1=C(C)C[C@@H](O)CC1(C)C` [Lutein], the “Relative changed percentage (%)” value was 31.92%.
For LEPTIN, the “Relative changed percentage (%)” value was 27.09%.
In the case of `[S]=[Pb]` [LEAD(II) SULFIDE], the “Relative changed percentage (%)” value is reported as −13.63%.
With `O=P([O-])([O-])O.[K+].[K+]` [Potassium Phosphate Dibasic] the “Relative changed percentage (%)” value was 177.4846%.
`CC[C@H](C)[C@H](NC(=O)[C@H](Cc1ccc(O)cc1)NC(=O)[C@@H](NC(=O)[C@H](CCCNC(=N)N)NC(=O)[C@@H](N)CC(=O)O)C(C)C)C(=O)N[C@@H](Cc1cnc[nH]1)C(=O)N1CCC[C@H]1C(=O)N[C@@H](Cc1ccccc1)C(=O)O` [ANGIOTENSIN II HUMAN] was tested, and the “Relative changed percentage (%)” value was 17.25%.
For `O=C(O)[C@@H]1CCCN1` [L-Proline], the “Relative changed percentage (%)” value was −3.935%.
With `CC(C)C[C@H](N)C(=O)O` [L-Leucine] the “Relative changed percentage (%)” value was −7.16%.
`C[C@]12CC[C@@H]3c4ccc(O)cc4CC[C@H]3[C@@H]1C[C@@H](O)[C@@H]2O` [ESTRIOL] was tested, and the “Relative changed percentage (%)” value was 2.789%.
With “MANGANESE SULFATE MONOHYDRATE [MANGANESE SULFATE MONOHYDRATE,]” the “Relative changed percentage (%)” value was −14.23%.
(−)-EPINEPHRINE was tested, and the “Relative changed percentage (%)” value was 53.12%.
For “C-PEPTIDE FRAGMENT 3-33, HUMAN [C-PEPTIDE FRAGMENT 3-33, HUMAN/C-peptide]”, the “Relative changed percentage (%)” value was −11.7%.
For `COc1nc(N)nc2nc[nH]c12` [O-METHYLGUANINE], the “Relative changed percentage (%)” value was 6.274%.
For `O=C(O)[C@@H]1C[C@@H](O)CN1` [trans-4-Hydroxy-L-proline], the “Relative changed percentage (%)” value was 5.281%.
In the case of `CC1=CCCC(C)(C)C1/C=C/C(C)=C/C=C/C(C)=C/C=C/C=C(C)/C=C/C=C(C)/C=C/C1=C(C)CCCC1(C)C` (centres unmarked) [A-CAROTENE], the “Relative changed percentage (%)” value is reported as 6.561%.
`CC1=C(C/C=C(\C)CCC[C@H](C)CCC[C@H](C)CCCC(C)C)C(=O)c2ccccc2C1=O` [VITAMIN K1] was tested, and the “Relative changed percentage (%)” value was 10.13%.
In the case of `O=C(/C=C/c1ccc(O)c(O)c1)OCCc1ccccc1` [Caffeic acid phenethyl ester], the “Relative changed percentage (%)” value is reported as 43.85%.
For `C[C@]12CC[C@@H]3c4ccc(O)cc4CC[C@H]3[C@@H]1CCC2=O` [ESTRONE], the “Relative changed percentage (%)” value was 25.0199%.
`O=C([O-])[C@H](O)[C@@H](O)[C@H](O)[C@H](O)CO.[K+]` [Potassium Gluconate] was tested, and the “Relative changed percentage (%)” value was 97.7133%.
In the case of `C[C@@H](O)[C@H](N)C(=O)O` [L-Threonine], the “Relative changed percentage (%)” value is reported as −6.543%.
In the case of `O=P([O-])(O)O.[K+]` [Monopotassium Phosphate], the “Relative changed percentage (%)” value is reported as 28.67%.
`C[C@@H]1O[C@@H](OC[C@H]2O[C@@H](Oc3c(-c4ccc(O)c(O)c4)oc4cc(O)cc(O)c4c3=O)[C@H](O)[C@@H](O)[C@@H]2O)[C@H](O)[C@H](O)[C@H]1O` [Rutoside trihydrate] was tested, and the “Relative changed percentage (%)” value was 14.9881%.
`CCCCCCCCCCCCCCCCCC(=O)O` [Stearic Acid] was tested, and the “Relative changed percentage (%)” value was 38.77%.
For “Alpha-Tocopherol [(+/−)-A-TOCOPHEROL/Alpha-Tocopherol]”, the “Relative changed percentage (%)” value was 40.65%.
With `CCCCCCCCCCCCCCCC(=O)O` [Palmitic Acid] the “Relative changed percentage (%)” value was −2.643%.
With `CC(C)[C@H](N)C(=O)O` [L-Valine] the “Relative changed percentage (%)” value was 5.296%.
`N[C@@H](CC(=O)O)C(=O)O` [L-Aspartic Acid] was tested, and the “Relative changed percentage (%)” value was −9.615%.
Bilirubin Mixed Isomers was tested, and the “Relative changed percentage (%)” value was −37.62%.
With `Nc1ncnc2c1ncn2[C@@H]1O[C@H](CO)[C@@H](O)[C@H]1O` [ADENOSINE FREE BASE] the “Relative changed percentage (%)” value was 3.704%.
`[Br-].[Na+]` [SODIUM BROMIDE] was tested, and the “Relative changed percentage (%)” value was −26.98%.
2-DEOXY-L-RIBOSE/Deoxycytidine was tested, and the “Relative changed percentage (%)” value was 36.7%.
For `N[C@H]1C(O)O[C@H](CO)[C@@H](O)[C@@H]1OS(=O)(=O)O` (stereo partly drawn) [D-glucosamine 3-sulfate], the “Relative changed percentage (%)” value was 9.801%.
With `Cc1ncc(CO)c(C=O)c1O.Cl` [Pyridoxal Hydrochloride] the “Relative changed percentage (%)” value was 7.787%.
Collagen type II was tested, and the “Relative changed percentage (%)” value was 8.555%.
In the case of Eicosatrienoic Acid, the “Relative changed percentage (%)” value is reported as 15.36%.
In the case of `CCCCC[C@H](O)CC(=O)CCc1ccc(O)c(OC)c1` [Compound 6-gingerol, 6-gingerol], the “Relative changed percentage (%)” value is reported as 42.62%.
`Oc1ccc(C=Cc2cc(O)cc(O)c2)cc1` [Resveratrol] was tested, and the “Relative changed percentage (%)” value was 13.16%.
For `O=C([O-])O.[Na+]` [SODIUM BICARBONATE], the “Relative changed percentage (%)” value was 50.35%.
In the case of “LECYSTOKININ FRAGMENT 26-33 AMIDE NON SULFA”, the “Relative changed percentage (%)” value is reported as 4.556%.
In the case of `NC(=O)C[C@H](N)C(=O)O` [L-Asparagine], the “Relative changed percentage (%)” value is reported as 28.4787%.
`N[C@@H](CS)C(=O)O` [L-CYSTEINE BIOULTRA,, L-CYSTEINE] was tested, and the “Relative changed percentage (%)” value was −22.74%.
For `CS(C)(=O)=O` [Methylsulfonylmethane], the “Relative changed percentage (%)” value was −17.53%.
In the case of CHITIN, the “Relative changed percentage (%)” value is reported as 5.909%.
For `Cc1ncc(C[n+]2csc(CCOP(=O)(O)OP(=O)(O)O)c2C)c(N)n1` [TIIIAMINE PYROPIIOSPIIATE], the “Relative changed percentage (%)” value was 9.753%.
For `CC[C@H](C)[C@H](N)C(=O)O` [L-Isoleucine], the “Relative changed percentage (%)” value was −8.642%.
In the case of `O[C@H]1[C@H](O)[C@@H](O)[C@H](O)[C@@H](O)[C@H]1O` [MYO-INOSITOL], the “Relative changed percentage (%)” value is reported as 40.7157%.
For `O=c1cc[nH]c(=O)[nH]1` [URACIL], the “Relative changed percentage (%)” value was 2.457%.
